In patent US11779659B2, “RNA constructs and uses thereof” (priority 2020, dated 2023):

How the values were obtained:
[1] = LNP formulation screening: physical characteristics; assay type: physicochemical; conditions: LNP with surrogate RNA coding for luciferase
Procedure: (§1) An exemplary LNP delivery system was developed to effectively and safely deliver therapeutic nucleic acids into the cytosol of various cell types after local administration in vivo. The early formulation work was performed with several promising LNP formulations and surrogate RNA coding for luciferase. The aim of the experiments was to correlate the effect of different ionizable cationic lipids on the efficacy of RNA delivery by LNPs in vivo. Formulations were compared in terms of RNA encapsulation efficiency, apparent pKa, LNP size and polydispersity.

[2] = test system: liver; experiment: in vivo screening of LNP with luciferase (Luc) RNA, intravenous administration
Procedure: as §1
Based on this the ALC-0315/DSPC/CHOL/ALC-0159 prototype was submitted for in vivo screening. The results presented in FIG. 16 summarize the in vivo testing of two independent pilot batches using luciferase (Luc) RNA.
The formulation screening procedure described above involves intravenous administration resulting in delivery primarily to the liver. The mechanism of LNP uptake into hepatocytes is driven by binding of endogenous apolipoproteins to the LNP followed by receptor-mediated endocytosis e.g. through low density lipoprotein receptors. […] Luc expression was monitored at 4, 24, 72 and 96 hours post administration (FIG. 17).

CCCCCCCCC(CCCCCC)C(=O)OCCCCCCN(CCCCO)CCCCCCOC(=O)C(CCCCCC)CCCCCCCC (centres unmarked) [ALC-0315, ((4-hydroxybutyl)azanediyl)bis(hexane-6,1-diyl)bis(2-hexyldecanoate)]
physical characteristics regarding particle size, homogeneity, and RNA encapsulation efficiency [1]: suitable
potency as cationic lipid [2]: highly potent
